Experimental data: publication PMC12349723, “Computationally accelerated identification of P-glycoprotein inhibitors” (PLOS One, 2025)
Several values for one entry are separate records, joined by “and”; a condition that tells them apart may be missing. Identical values can stand only once. Like-named read-outs stand apart in the source and are kept apart here.

What was measured:
[1] = system: DU145-TXR cells; assay: MTT viability assay, reversal of MDR (re-sensitization to paclitaxel) in P-gp overexpressing DU145-TXR cells; assay type: cell-based, human; settings: for % Survival, mean / % Survival: 15 µM compound + 500 nM PTX (Paclitaxel, Taxol); for % Survival, mean / % Survival / viability at 15 µM: DU145-TXR; for Re-sensitization of DU145-TXR cells to PTX (reversal of MDR): 15 µM compound with or without 500 nM PTX, 48 h, MTT, re-sensitization = 30% or greater decrease in cell viability; for viability at 15 µM: Homo sapiens, 15 µM Compound Alone
Summary of the method: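 MTT viability testing was done on P-gp overexpressing, multidrug resistant DU145-TXR human prostate cancer cells. They were kept in 10 nM paclitaxel and seeded at 3,000 cells per well in complete RPMI. Cells were exposed to compound, with or without paclitaxel, for 48 hours. MTT was then added for 4 hours, formazan was dissolved in DMSO, and absorbance was read at 570 nm. Survival was expressed relative to control-treated cells.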

[2] = system: A2780-ADR cells; assay: MTT viability assay, reversal of MDR in P-gp overexpressing A2780-ADR cells; assay type: cell-based, human; settings: for Mean % Survival / % Survival (individual sample) / viability at 15 µM: A2780-ADR cells; for viability at 15 µM: Homo sapiens, A2780 ADR; for Reversal of MDR in A2780-ADR cells: 15 µM compound with or without 500 nM PTX, 48 h, MTT
Summary of the method: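 Viability was assessed by MTT reduction (absorbance 570 nm, 4 h MTT) after 48 h compound treatment, alone or with chemotherapeutic, of parental A2780 or P-gp-overexpressing A2780-ADR cells seeded at 3,000 per well. Percent survival relative to DMSO-treated or DMSO-plus-chemotherapeutic controls.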

[3] = biological target: T1, P-gp (Homo sapiens, UniProt P08183); assay: Top Hit classification from combined in vitro criteria; settings: reverse MDR, do not increase PTX toxicity in chemo-sensitive cancer cells, non-toxic to noncancerous cells, not P-gp substrates
T1 construct: The MDR, P-gp overexpressing DU145-TXR cells were maintained under positive selection pressure; endogenous in cells; host or cells: DU145-TXR (paclitaxel-resistant sub-line of DU145 human prostate cancer cells)

[4] = mean of 8 samples, read-out: % Survival, mean
[5] = trial 1, sample 1, read-out: % Survival
[6] = trial 1, sample 2, read-out: % Survival
[7] = trial 1, sample 3, read-out: % Survival
[8] = trial 1, sample 4, read-out: % Survival
[9] = trial 2, sample 1, read-out: % Survival
[10] = trial 2, sample 2, read-out: % Survival
[11] = trial 2, sample 3, read-out: % Survival
[12] = trial 2, sample 4, read-out: % Survival
[13] = 15 µM compound + 500 nM PTX, mean of 12 samples
[14] = 15 µM compound + 500 nM PTX, single samples (trials 1-3, samples 1-4)
[15] = 15 µM compound alone, single samples (trials 1-3, samples 1-4)
[16] = 15 µM compound alone, mean of 12 samples, read-out: Mean % Survival

T1 sequence (P08183 whole entry): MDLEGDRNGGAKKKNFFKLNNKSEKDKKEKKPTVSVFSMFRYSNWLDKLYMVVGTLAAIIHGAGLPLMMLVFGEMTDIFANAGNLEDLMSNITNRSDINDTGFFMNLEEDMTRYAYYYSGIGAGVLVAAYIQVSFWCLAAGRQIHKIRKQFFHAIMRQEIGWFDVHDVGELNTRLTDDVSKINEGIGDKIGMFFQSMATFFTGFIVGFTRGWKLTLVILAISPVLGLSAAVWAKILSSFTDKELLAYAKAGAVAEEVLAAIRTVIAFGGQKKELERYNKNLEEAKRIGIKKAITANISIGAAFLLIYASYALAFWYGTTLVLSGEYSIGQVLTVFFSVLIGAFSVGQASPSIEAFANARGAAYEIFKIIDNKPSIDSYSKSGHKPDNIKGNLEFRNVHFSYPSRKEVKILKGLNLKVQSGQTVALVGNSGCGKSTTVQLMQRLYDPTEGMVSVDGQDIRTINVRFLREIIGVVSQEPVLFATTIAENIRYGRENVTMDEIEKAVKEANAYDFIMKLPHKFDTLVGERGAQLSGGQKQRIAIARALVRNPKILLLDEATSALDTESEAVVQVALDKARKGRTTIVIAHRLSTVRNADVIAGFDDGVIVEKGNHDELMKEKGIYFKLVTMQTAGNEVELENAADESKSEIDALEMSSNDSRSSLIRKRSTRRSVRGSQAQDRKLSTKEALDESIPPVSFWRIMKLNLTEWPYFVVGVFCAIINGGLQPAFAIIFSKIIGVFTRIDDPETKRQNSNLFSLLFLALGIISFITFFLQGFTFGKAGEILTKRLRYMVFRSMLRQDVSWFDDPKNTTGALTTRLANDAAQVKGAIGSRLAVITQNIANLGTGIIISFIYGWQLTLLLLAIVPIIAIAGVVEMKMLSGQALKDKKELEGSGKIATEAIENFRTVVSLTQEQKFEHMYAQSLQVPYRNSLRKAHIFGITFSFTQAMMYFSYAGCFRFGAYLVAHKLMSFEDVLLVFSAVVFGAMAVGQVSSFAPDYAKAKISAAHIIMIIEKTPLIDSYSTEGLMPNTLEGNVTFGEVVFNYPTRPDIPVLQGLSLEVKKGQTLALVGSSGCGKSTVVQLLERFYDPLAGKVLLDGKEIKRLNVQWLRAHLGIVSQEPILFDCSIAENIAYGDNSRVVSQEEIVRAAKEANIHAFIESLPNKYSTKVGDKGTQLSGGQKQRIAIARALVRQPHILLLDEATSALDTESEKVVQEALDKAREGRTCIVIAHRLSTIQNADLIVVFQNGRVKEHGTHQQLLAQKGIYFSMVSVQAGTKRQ

NS(=O)(=O)c1cccc(NC(=O)CSc2nnnn2C2CC2)c1 [Compound 89, NS(=O)(=O)c1cccc(NC(=O)CSc2nnnn2C2CC2)c1]
% Survival, mean ([1]; mean of 8 samples): 97.9% | % Survival ([1]; trial 1, sample 1): 108% | % Survival ([1]; trial 1, sample 2): 120% | % Survival ([1]; trial 1, sample 3): 99% | % Survival ([1]; trial 1, sample 4): 113% | % Survival ([1]; trial 2, sample 1): 85% | % Survival ([1]; trial 2, sample 2): 83% | % Survival ([1]; trial 2, sample 3): 88% | % Survival ([1]; trial 2, sample 4): 87% | Re-sensitization of DU145-TXR cells to PTX (reversal of MDR) [1]: did not reverse MDR in DU145-TXR cells | viability at 15 µM [1, 4]: 105% | viability at 15 µM [1, 5]: 115% | viability at 15 µM [1, 6]: 120% | viability at 15 µM [1, 7]: 122% | viability at 15 µM [1, 8]: 116% | viability at 15 µM [1, 9]: 103% | viability at 15 µM [1, 10]: 92% | viability at 15 µM [1, 11]: 95% | viability at 15 µM [1, 12]: 79% | Mean % Survival [2, 13]: 74.6% | % Survival (individual sample) [2, 14]: 54% | % Survival (individual sample) [2, 15]: 90% and 86% | viability at 15 µM [2, 16]: 89.9% | viability at 15 µM ([2]; 15 µM compound alone, single samples (trials 1-3, samples 1-4), read-out: % Survival (individual sample)): 91% | Top Hit [3]: No

O=S(=O)(CCSc1nnc(-c2ccccc2)c2ccccc12)c1ccccc1 [Compound 96, O=S(=O)(CCSc1nnc(-c2ccccc2)c2ccccc12)c1ccccc1]
% Survival, mean ([1]; mean of 8 samples): 55.3% | % Survival ([1]; trial 1, sample 1): 56% | % Survival ([1]; trial 1, sample 2): 66% | % Survival ([1]; trial 1, sample 3): 66% | % Survival ([1]; trial 1, sample 4): 63% | % Survival ([1]; trial 2, sample 1): 47% | % Survival ([1]; trial 2, sample 2): 50% | % Survival ([1]; trial 2, sample 3): 48% | % Survival ([1]; trial 2, sample 4): 46% | Re-sensitization of DU145-TXR cells to PTX (reversal of MDR) [1]: re-sensitized DU145-TXR cells to PTX | viability at 15 µM [1, 4]: 89.2% | viability at 15 µM [1, 5]: 101% | viability at 15 µM [1, 6]: 100% | viability at 15 µM [1, 7]: 98% | viability at 15 µM [1, 8]: 93% | viability at 15 µM [1, 9]: 85% | viability at 15 µM [1, 10]: 85% | viability at 15 µM [1, 11]: 80% | viability at 15 µM [1, 12]: 71% | Reversal of MDR in A2780-ADR cells [2]: reversed MDR in A2780-ADR cells | Mean % Survival [2, 13]: 68.8% | % Survival (individual sample) [2, 14]: 58% | % Survival (individual sample) [2, 15]: 97% | viability at 15 µM [2, 16]: 105% | Top Hit [3]: Yes

O=S(=O)(Cc1nc2ccccc2n1CC(O)c1ccc(Cl)cc1)c1ccccc1 (centres unmarked) [Compound 97, OC(Cn1c(CS(=O)(=O)c2ccccc2)nc2ccccc12)c1ccc(Cl)cc1]
% Survival, mean ([1]; mean of 8 samples): 34.9% | % Survival ([1]; trial 1, sample 1): 26% | % Survival ([1]; trial 1, sample 2): 30% | % Survival ([1]; trial 1, sample 3): 24% | % Survival ([1]; trial 1, sample 4): 42% | % Survival ([1]; trial 2, sample 1): 44% | % Survival ([1]; trial 2, sample 2): 41% | % Survival ([1]; trial 2, sample 3): 30% | % Survival ([1]; trial 2, sample 4): 42% | Re-sensitization of DU145-TXR cells to PTX (reversal of MDR) [1]: re-sensitized DU145-TXR cells to PTX | viability at 15 µM [1, 4]: 87.2% | viability at 15 µM [1, 5]: 107% | viability at 15 µM [1, 6]: 82% | viability at 15 µM [1, 7]: 82% | viability at 15 µM [1, 8]: 83% | viability at 15 µM [1, 9]: 77% | viability at 15 µM [1, 10]: 89% | viability at 15 µM [1, 11]: 88% | viability at 15 µM [1, 12]: 90% | Reversal of MDR in A2780-ADR cells [2]: reversed MDR in A2780-ADR cells | Mean % Survival [2, 13]: 44.3% | % Survival (individual sample) [2, 14]: 47% and 29% | viability at 15 µM [2, 16]: 92.5% | Top Hit [3]: Yes
